According to patent publication US8835422B2, “Substituted imidazoheterocycle derivatives” (Cara Therapeutics, Inc., priority 2008, dated 2014):

Legend:
Format in all cases: cell-based
[1] = target: human CB1 receptor (hCB1) (Homo sapiens, UniProt P21554); experiment: cAMP assay (LANCE TR-FRET) in CHO-K1 cells stably expressing hCB1
Procedure: (§1) The ability of compounds to act as agonists or inverse agonists at human CB2 and CB1 receptors (hCB2, hCB1, respectively) and at the rat CB2 receptor (rCB2) was determined by measuring changes in intracellular cAMP levels. Chinese Hamster Ovary (CHO-K1) cell lines stably expressing hCB2 (Genebank: X74328) or hCB1 (Genebank: X54937) were purchased from Euroscreen (Gosselies, Belgium). The rat CB2 receptor was expressed from genomic DNA (provided by M. Abood, California Pacific Medical Center) in CHO-K1 cells from expression plasmid vector, pcDNA3.1.
(§2) Receptor mediated responses were determined by measuring changes in intracellular cAMP using LANCE cAMP detection kit (cat #AD0264, Perkin Elmer, Wellesley, Mass.) based on time-resolved fluorescence resonance energy transfer (TR-FRET).
(§3) On the day of the experiment, cells were spun at low speed for 5 min at room temperature. […] Cell clumps were removed by filtering through cell strainer 40 μm (BD Falcon, Discovery Labware, Bedford, Mass.) and diluted to 2×10^5 cells/mL. Antibody supplied with the LANCE cAMP immunoassay kit was then added according to the manufacturer's instructions. An aliquot of cells was taken for un-induced controls. […] Cells were then incubated for 30 min at room temperature prior to adding to Proxiplates containing test compounds (final DMSO concentration was less than 0.5%) with a Multidrop bulk dispenser, followed by a sixty minute incubation at room temperature. The response was stopped by addition of the detection mix supplied with the LANCE kit. The reagents were allowed to equilibrate for three hours prior to reading on an Envision multi-mode detector (Perkin-Elmer). TR-FRET was measured using a 330-380 nm excitation filter, a 665 nm emission filter, dichroic mirror 380 nm and Z=1 mm. Cyclic AMP concentrations in each well were back-calculated from a cAMP standard curve run concurrently during each assay. Each plate contained 16 wells of forskolin stimulated cells and 16 wells of forskolin plus CP55,940-treated cells. […] Concentrations of cAMP were expressed as a percent of the difference of these two groups of wells.

[2] = target: T1, human CB2 receptor (hCB2) (Homo sapiens, UniProt P34972); experiment: cAMP assay (LANCE TR-FRET) in CHO-K1 cells stably expressing hCB2
T1 construct: host or cells: CHO-K1
T1 sequence (P34972 whole entry): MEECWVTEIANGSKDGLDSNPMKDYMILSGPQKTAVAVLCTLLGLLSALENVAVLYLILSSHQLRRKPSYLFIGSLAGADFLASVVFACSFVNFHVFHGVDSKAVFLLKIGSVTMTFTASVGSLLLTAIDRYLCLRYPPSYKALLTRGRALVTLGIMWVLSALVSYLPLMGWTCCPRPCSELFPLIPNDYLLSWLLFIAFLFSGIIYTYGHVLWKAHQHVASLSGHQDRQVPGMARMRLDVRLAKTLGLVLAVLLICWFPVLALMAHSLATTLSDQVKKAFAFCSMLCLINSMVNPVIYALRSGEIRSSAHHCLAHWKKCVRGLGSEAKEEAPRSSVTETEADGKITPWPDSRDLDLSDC
Procedure: as §1, §2, §3

rat CB2 receptor (rCB2) = target: T2, rat CB2 receptor (rCB2) (Rattus norvegicus, UniProt Q9QZN9); experiment: cAMP assay (LANCE TR-FRET) in CHO-K1 cells expressing rat CB2
T2 construct: expressed in transfected cells; host or cells: CHO-K1 (plasmid pcDNA3.1)
T2 sequence (Q9QZN9 1-360): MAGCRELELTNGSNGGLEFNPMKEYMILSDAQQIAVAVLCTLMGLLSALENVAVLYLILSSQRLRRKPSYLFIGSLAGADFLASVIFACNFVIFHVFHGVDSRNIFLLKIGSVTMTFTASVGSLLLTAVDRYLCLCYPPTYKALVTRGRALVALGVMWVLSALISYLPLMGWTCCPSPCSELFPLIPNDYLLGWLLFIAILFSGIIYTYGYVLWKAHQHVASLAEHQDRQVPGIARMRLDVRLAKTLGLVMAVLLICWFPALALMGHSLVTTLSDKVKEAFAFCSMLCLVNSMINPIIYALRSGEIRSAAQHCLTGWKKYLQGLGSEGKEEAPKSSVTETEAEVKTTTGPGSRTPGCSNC
Procedure: as §1, §2, §3

human CB1 receptor (hCB1), sequence (P21554 whole entry): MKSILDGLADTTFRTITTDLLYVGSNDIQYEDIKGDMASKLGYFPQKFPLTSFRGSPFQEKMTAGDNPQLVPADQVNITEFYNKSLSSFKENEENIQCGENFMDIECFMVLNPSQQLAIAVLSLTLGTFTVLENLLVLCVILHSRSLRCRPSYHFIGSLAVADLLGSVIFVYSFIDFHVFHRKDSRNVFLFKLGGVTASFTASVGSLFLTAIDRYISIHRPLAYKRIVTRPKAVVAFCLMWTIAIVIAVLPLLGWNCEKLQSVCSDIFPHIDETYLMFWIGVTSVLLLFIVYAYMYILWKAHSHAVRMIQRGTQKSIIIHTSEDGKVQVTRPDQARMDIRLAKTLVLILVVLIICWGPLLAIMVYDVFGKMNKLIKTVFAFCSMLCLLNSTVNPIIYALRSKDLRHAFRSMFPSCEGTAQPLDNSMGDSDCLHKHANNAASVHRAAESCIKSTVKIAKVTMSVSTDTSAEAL

In the case of CCN1Cc2c(C(=O)N[C@H](C(=O)NC)C(C)(C)C)nc(-c3ccc(F)c(F)c3)n2CC(C)C1 (mixture of isomers) [Compound 2-3, (S)-3-(3,4-difluorophenyl)-N-(3,3-dimethyl-1-(methylamino)-1-oxobutan-2-yl)-8-ethyl-6-methyl-6,7,8,9-tetrahydro-5H-imidazo[1,5-a][1,4]diazepine-1-carboxamide], the EC50 [1] is reported as 10 to 100 nM and the EC50 [2] is reported as 10 to 100 nM.
CNC(=O)[C@@H](NC(=O)c1nc(-c2ccc(F)c(F)c2)n2c1CN(C)C(C)CC2)C(C)(C)C (single isomer, unassigned) [Compound 2-4] was tested, and the EC50 [2] was 10 to 100 nM.
CC(C)(C)[C@H](NC(=O)c1nc(-c2ccccc2)n2c1CCCCC2)C(=O)N1CCC1 [Compound 1-4, (S)—N-(1-(azetidin-1-yl)-3,3-dimethyl-1-oxobutan-2-yl)-3-phenyl-6,7,8,9-tetrahydro-5H-imidazo[1,5-a]azepine-1-carboxamide] showed an EC50 [1] of 10 to 100 nM and an EC50 [2] of 0.1 to 10 nM.
Compound CC(C)(C)[C@H](NC(=O)c1nc(-c2cc(F)ccc2F)n2c1CCCCC2)C(=O)N1CCC1 [Compound 1-5, (S)—N-(1-(azetidin-1-yl)-3,3-dimethyl-1-oxobutan-2-yl)-3-(2,5-difluorophenyl)-6,7,8,9-tetrahydro-5H-imidazo[1,5-a]azepine-1-carboxamide] has an EC50 [1] of 0.1 to 10 nM and an EC50 [2] of 0.1 to 10 nM.
With CC(C)(C)[C@@H](CO)NC(=O)c1nc(-c2ccc(F)c(F)c2)n2c1CCCCC2 [Compound 1-6, (S)-3-(3,4-difluorophenyl)-N-(1-hydroxy-3,3-dimethylbutan-2-yl)-6,7,8,9-tetrahydro-5H-imidazo[1,5-a]azepine-1-carboxamide] the EC50 [2] was 0.1 to 10 nM.
Compound CNC(=O)[C@@H](NC(=O)c1nc(-c2ccc(F)c(F)c2)n2c1CCCC2)C(C)(C)C [Compound 1-7, (S)-3-(3,4-difluorophenyl)-N-(3,3-dimethyl-1-(methyl-amino)-1-oxobutan-2-yl)-5,6,7,8-tetrahydroimidazo[1,5-a]pyridine-1-carboxamide] has an EC50 [1] of 0.1 to 10 nM and an EC50 [2] of 0.1 to 10 nM.
Work on CNC(=O)[C@@H](NC(=O)c1nc(-c2ccccc2)n2c1CCOCC2)C(C)(C)C [Compound 1-8, (S)—N-(3,3-dimethyl-1-(methylamino)-1-oxobutan-2-yl)-3-phenyl-5,6,8,9-tetrahydroimidazo[1,5-d][1,4]oxazepine-1-carboxamide] yielded an EC50 [2] of 10 to 100 nM.
Work on CC(C)(C)[C@H](NC(=O)c1nc(-c2ccc(F)c(F)c2)n2c1COCCC2)C(=O)NCCO [Compound 1-11, (S)-3-(3,4-difluorophenyl)-N-(1-(2-hydroxyethylamino)-3,3-dimethyl-1-oxobutan-2-yl)-5,6,7,9-tetrahydroimidazo[5,1-c][1,4]oxazepine-1-carboxamide] yielded an EC50 [2] of 10 to 100 nM.
CNC(=O)[C@@H](NC(=O)c1nc(-c2cc(F)ccc2F)n2c1COCCC2)C(C)(C)C [Compound 1-12, (S)-3-(2,5-difluorophenyl)-N-(3,3-dimethyl-1-(methylamino)-1-oxobutan-2-yl)-5,6,7,9-tetrahydroimidazo[5,1-c][1,4]oxazepine-1-carboxamide] showed an EC50 [1] of 0.1 to 10 nM and an EC50 [2] of 0.1 to 10 nM.
In the case of CNC(=O)[C@@H](NC(=O)c1nc(-c2ccc(Cl)cc2F)n2c1COCCC2)C(C)(C)C [Compound 1-13, (S)-3-(4-chloro-2-fluorophenyl)-N-(3,3-dimethyl-1-(methylamino)-1-oxobutan-2-yl)-5,6,7,9-tetrahydroimidazo[5,1-c][1,4]oxazepine-1-carboxamide], the EC50 [1] is reported as 0.1 to 10 nM and the EC50 [2] is reported as 0.1 to 10 nM.
CC[C@H](C)[C@H](NC(=O)c1nc(-c2ccc(F)c(F)c2)n2c1CCCCC2)C(N)=O [Compound 1-14, N-((2S,3S)-1-amino-3-methyl-1-oxopentan-2-yl)-3-(3,4-difluorophenyl)-6,7,8,9-tetrahydro-5H-imidazo[1,5-a]azepine-1-carboxamide] was tested, and the EC50 [1] was 0.1 to 10 nM and the EC50 [2] was 0.1 to 10 nM.
O=C(N[C@H]1c2ccccc2C[C@@H]1O)c1nc(-c2ccc(F)c(F)c2)n2c1CCCCC2 [Compound 1-15, 3-(3,4-difluorophenyl)-N-((1S,2S)-2-hydroxy-2,3-dihydro-1H-inden-1-yl)-6,7,8,9-tetrahydro-5H-imidazo[1,5-a]azepine-1-carboxamide] gave an EC50 [2] of 0.1 to 10 nM.
Compound O=C(N[C@@H]1c2ccccc2C[C@@H]1O)c1nc(-c2ccc(F)c(F)c2)n2c1CCCCC2 [Compound 1-16, 3-(3,4-difluorophenyl)-N-((1R,2S)-2-hydroxy-2,3-dihydro-1H-inden-1-yl)-6,7,8,9-tetrahydro-5H-imidazo[1,5-a]azepine-1-carboxamide] has an EC50 [1] of 10 to 100 nM and an EC50 [2] of 10 to 100 nM.
With O=C(N[C@@H]1c2ccccc2C[C@H]1O)c1nc(-c2ccc(F)c(F)c2)n2c1CCCCC2 [Compound 1-17, 3-(3,4-difluorophenyl)-N-((1R,2R)-2-hydroxy-2,3-dihydro-1H-inden-1-yl)-6,7,8,9-tetrahydro-5H-imidazo[1,5-a]azepine-1-carboxamide] the EC50 [1] was 10 to 100 nM and the EC50 [2] was 10 to 100 nM.
O=C(N[C@H]1c2ccccc2C[C@H]1O)c1nc(-c2ccc(F)c(F)c2)n2c1CCCCC2 [Compound 1-18, 3-(3,4-difluorophenyl)-N-((1S,2R)-2-hydroxy-2,3-dihydro-1H-inden-1-yl)-6,7,8,9-tetrahydro-5H-imidazo[1,5-a]azepine-1-carboxamide] gave an EC50 [1] of 10 to 100 nM and an EC50 [2] of 0.1 to 10 nM.
Compound O=C(NC1CCc2ccccc21)c1nc(-c2ccc(F)c(F)c2)n2c1CCCCC2 (stereo not drawn) [Compound 1-19, 3-(3,4-difluorophenyl)-N-(2,3-dihydro-1H-inden-1-yl)-6,7,8,9-tetrahydro-5H-imidazo[1,5-a]azepine-1-carboxamide] has an EC50 [2] of 0.1 to 10 nM.
With O=C(N[C@H]1CCCc2ccccc21)c1nc(-c2ccc(F)c(F)c2)n2c1CCCCC2 [Compound 1-20, (S)-3-(3,4-difluorophenyl)-N-(1,2,3,4-tetrahydronaphthalen-1-yl)-6,7,8,9-tetrahydro-5H-imidazo[1,5-a]azepine-1-carboxamide] the EC50 [2] was 0.1 to 10 nM.
Compound O=C(N[C@@H]1CCCc2ccccc21)c1nc(-c2ccc(F)c(F)c2)n2c1CCCCC2 [Compound 1-21, (R)-3-(3,4-difluorophenyl)-N-(1,2,3,4-tetrahydronaphthalen-1-yl)-6,7,8,9-tetrahydro-5H-imidazo[1,5-a]azepine-1-carboxamide] has an EC50 [2] of 0.1 to 10 nM.
CC(C)(C)[C@H](NC(=O)c1nc(-c2ccccc2)n2c1CCCCC2)C(=O)NCCF [Compound 1-22, (S)—N-(1-(2-fluoroethylamino)-3,3-dimethyl-1-oxobutan-2-yl)-3-phenyl-6,7,8,9-tetrahydro-5H-imidazo[1,5-a]azepine-1-carboxamide] was tested, and the EC50 [1] was 10 to 100 nM and the EC50 [2] was 0.1 to 10 nM.
In the case of COC(=O)[C@@H](NC(=O)c1nc(-c2ccc(F)c(F)c2)n2c1CCCCC2)C(C)(C)C [Compound 1-23, (S)-methyl 2-(3-(3,4-difluorophenyl)-6,7,8,9-tetrahydro-5H-imidazo[1,5-a]azepine-1-carboxamido)-3,3-dimethylbutanoate], the EC50 [1] is reported as 0.1 to 10 nM and the EC50 [2] is reported as 0.1 to 10 nM.
With COC(=O)[C@@H](NC(=O)c1nc(-c2ccccc2)n2c1CCCCC2)C(C)(C)C [Compound 1-24, (S)-methyl 3,3-dimethyl-2-(3-phenyl-6,7,8,9-tetrahydro-5H-imidazo[1,5-a]azepine-1-carboxamido)butanoate] the EC50 [1] was 0.1 to 10 nM and the EC50 [2] was 0.1 to 10 nM.
CNC(=O)[C@@H](NC(=O)c1nc(-c2ccc(F)c(F)c2)n2c1CN(C)CC(C)(C)C2)C(C)(C)C [Compound 2-1, (S)-3-(3,4-difluorophenyl)-N-(3,3-dimethyl-1-(methylamino)-1-oxobutan-2-yl)-6,6,8-trimethyl-6,7,8,9-tetrahydro-5H-imidazo[1,5-a][1,4]diazepine-1-carboxamide] was tested, and the EC50 [2] was 10 to 100 nM.
Work on CNC(=O)[C@@H](NC(=O)c1nc(-c2ccccc2)n2c1CCNCC2)C(C)(C)C [Compound 3-8, (S)-N-(3,3-dimethyl-1-(methylamino)-1-oxobutan-2-yl)-3-phenyl-6,7,8,9-tetrahydro-5H-imidazo[1,5-d][1,4]diazepine-1-carboxamide] yielded an EC50 (rat CB2 receptor (rCB2)) of 10 to 100 nM.
